Reference: US8558019B2, “Thiolated paclitaxels for reaction with gold nanoparticles as drug delivery agents” (Virginia Tech Intellectual Properties, Inc., priority 2007, dated 2013)

System: B16/F10 melanoma cells
Assay: Efficacy study in tumor-burdened mice, tumor volume and mortality
Type: in vivo, C57BL/6 mice
Conditions: paclitaxel 40 mg/kg, formulations […], day 0, 2, 5 and 7
Procedure: The efficacy of the formulated nanodrugs was compared to that of unformulated paclitaxel for the treatment of tumor-burdened mice. For these studies C57BL/6 mice were implanted with B16/F10 melanoma cells. Once the cells formed tumors with an approximate volume of 500 mm^3 the mice (n=4/group/formulation) received an injection of either unformulated paclitaxel or one of the formulations (Formulations II, IV and XIII). Paclitaxel was given at a dose of 40 mg/kg, whereas the formulated drugs were administered at a dose of 2.5 mg/kg. The mice were treated on day 0, 2, 5 and 7 of the days and tumor responses were determined by measuring tumor volume during the course of the study

Which mortality rate does the source give for CC(=O)O[C@H]1C(=O)[C@@]2(C)[C@H]([C@H](OC(=O)c3ccccc3)[C@]3(O)C[C@H](OC(=O)[C@H](O)[C@@H](NC(=O)c4ccccc4)c4ccccc4)C(C)=C1C3(C)C)[C@]1(OC(C)=O)CO[C@@H]1C[C@@H]2O [unformulated paclitaxel, Paclitaxel] here?
The mortality rate was 75%.
